Reference: patent US20230365592A1 (Agios Pharmaceuticals, Inc., priority 2022, published 2023)

molecular target: T1, human PAH with the R408W mutation (Homo sapiens, UniProt P00439, R408W); experiment: Cell Based Phenylalanine Flux Assay; details: A375 cells expressing R408W PAH; 24 hrs with compound, then 20 µM sepiapterin and 800 µM 13C9,15N-Phenylalanine for 4 hours; 13C-Tyrosine by LC-MS; average where tested multiple times; read-out: AC50;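 note: after compound treatment, cells received sepiapterin plus isotope-labelled Phenylalanine for 4 hours, then labelled Tyrosine in the medium was quantified, 10-point 2-fold dilution series run in duplicate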
T1 construct: expressed in transfected cells
T1 sequence (P00439 1-452 R408W): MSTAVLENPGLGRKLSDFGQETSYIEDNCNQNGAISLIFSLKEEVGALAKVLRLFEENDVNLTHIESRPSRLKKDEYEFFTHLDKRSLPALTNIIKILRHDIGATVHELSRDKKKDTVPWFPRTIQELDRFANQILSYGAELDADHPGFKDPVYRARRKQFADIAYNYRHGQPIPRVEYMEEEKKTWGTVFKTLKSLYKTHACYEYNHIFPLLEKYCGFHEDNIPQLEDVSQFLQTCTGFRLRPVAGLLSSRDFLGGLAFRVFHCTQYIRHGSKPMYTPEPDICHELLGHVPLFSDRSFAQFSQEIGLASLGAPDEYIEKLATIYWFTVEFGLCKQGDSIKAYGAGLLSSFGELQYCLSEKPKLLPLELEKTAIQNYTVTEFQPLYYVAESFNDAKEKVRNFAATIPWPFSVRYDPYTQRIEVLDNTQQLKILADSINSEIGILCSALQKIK

`Cn1ccc(-c2nc(C(F)F)c(C(=O)N3CCc4[nH]cnc4C3c3cc4c(F)cccn4n3)o2)n1` (stereo not shown) was tested. Which AC50 did it give?
The AC50 was > 5000 nM.

How did the AC50 turn out when `CC(C)(O)c1nnc(C(=O)N2CCc3[nH]cnc3C2c2cc3cccc(C(F)(F)F)n3n2)o1` (stereo not shown) was run?
Its AC50 is 1000 to 5000 nM.

Which AC50 does the source give for `Cn1nc(N)cc1C(=O)N1CCc2[nH]cnc2C1c1cc2ccccn2n1` (stereo not shown) here?
Its AC50 is > 5000 nM.

With `Cc1ncccc1-c1nnc(N2CCc3[nH]cnc3C2c2cc3c(C4CC4)cccn3n2)o1` (stereo not shown) as the compound, how does the AC50 read?
Its AC50 is 1000 to 5000 nM.

`Cc1nnc(N2CCc3[nH]cnc3C2c2cc3c(OC(F)F)cccn3n2)o1` (stereo not shown) was tested. Which AC50 did it give?
Its AC50 is 1000 to 5000 nM.

How did the AC50 turn out when `Cc1cccn2nc([C@H]3c4nc[nH]c4CCN3C(=O)c3nnc(N4CCOCC4)o3)cc12` (single isomer, unassigned) was run?
The AC50 was > 5000 nM.

With `Cn1cc(-c2nc(C(F)F)c(C(=O)N3CCc4[nH]cnc4C3c3cc4ccccn4n3)o2)cn1` (stereo not shown) as the compound, how does the AC50 read?
The AC50 was 1000 to 5000 nM.

same assay, conditions: A375 cells expressing human PAH R408W; 24 hrs compound incubation; 13C-Tyrosine by LC-MS; average where tested multiple times; read-out: AC50

Which AC50 does the source give for `O=C(c1nnc(-c2ccc(F)cn2)o1)N1CCc2[nH]cnc2[C@@H]1c1cc2ccccn2n1` [Example 2364, (R)-(5-(5-fluoropyridin-2-yl)-1,3,4-oxadiazol-2-yl)(4-(pyrazolo[1,5-a]pyridin-2-yl)-6,7-dihydro-1H-imidazo[4,5-c]pyridin-5(4H)-yl)methanone] here?
Its AC50 is > 5000 nM.

`Cc1cccc2cc([C@H]3c4nc[nH]c4CCN3c3nnc(C(F)(F)F)o3)nn12` [Example 1851, (R)-2-(4-(7-methylpyrazolo[1,5-a]pyridin-2-yl)-6,7-dihydro-1H-imidazo[4,5-c]pyridin-5(4H)-yl)-5-(trifluoromethyl)-1,3,4-oxadiazole] was tested. Which AC50 did it give?
The AC50 was 1000 to 5000 nM.

Which AC50 does the source give for `O=C(c1nc2ccccc2s1)N1CCc2[nH]cnc2[C@H]1c1cc2ccccn2n1` [Example 2000, (S)-benzo[d]thiazol-2-yl(4-(pyrazolo[1,5-a]pyridin-2-yl)-1,4,6,7-tetrahydro-5H-imidazo[4,5-c]pyridin-5-yl)methanone] here?
Its AC50 is 1000 to 5000 nM.

Which AC50 does the source give for `CC(C)c1cccn2nc([C@H]3c4nc[nH]c4CCN3C(=O)c3nnc(-c4ccn(C(F)(F)F)n4)o3)cc12` [Example 1985, (R)-(4-(4-isopropylpyrazolo[1,5-a]pyridin-2-yl)-1,4,6,7-tetrahydro-5H-imidazo[4,5-c]pyridin-5-yl)(5-(1-(trifluoromethyl)-1H-pyrazol-3-yl)-1,3,4-oxadiazol-2-yl)methanone] here?
The AC50 was > 5000 nM.

How did the AC50 turn out when `COc1ccc2c(C(=O)N3CCc4[nH]cnc4[C@H]3c3cc4cccc(Cl)n4n3)cnn2c1` [Example 2464, (S)-(4-(7-chloropyrazolo[1,5-a]pyridin-2-yl)-6,7-dihydro-1H-imidazo[4,5-c]pyridin-5(4H)-yl)(6-methoxypyrazolo[1,5-a]pyridin-3-yl)methanone] was run?
The AC50 was 1000 to 5000 nM.

For `Cc1cccn2nc([C@@H]3c4nc[nH]c4CCN3C(=O)c3cnc(-c4ccn(C)n4)o3)cc12` [Example 2499, (S)-(2-(1-methyl-1H-pyrazol-3-yl)oxazol-5-yl)(4-(4-methylpyrazolo[1,5-a]pyridin-2-yl)-1,4,6,7-tetrahydro-5H-imidazo[4,5-c]pyridin-5-yl)methanone], which AC50 is on record?
Its AC50 is 1000 to 5000 nM.

For `Cc1cccn2nc([C@@H]3c4nc[nH]c4CCN3C(=O)c3nnc(C4CC4)s3)cc12` [Example 1997, (S)-(5-cyclopropyl-1,3,4-thiadiazol-2-yl)(4-(4-methylpyrazolo[1,5-a]pyridin-2-yl)-1,4,6,7-tetrahydro-5H-imidazo[4,5-c]pyridin-5-yl)methanone], which AC50 is on record?
Its AC50 is 500 to 1000 nM.

`O=C(c1nnc(-c2ncccn2)o1)N1CCc2[nH]cnc2[C@H]1c1cc2c(OC(F)(F)F)cccn2n1` [Example 2469, (S)-(5-(pyrimidin-2-yl)-1,3,4-oxadiazol-2-yl)(4-(4-(trifluoromethoxy)pyrazolo[1,5-a]pyridin-2-yl)-6,7-dihydro-1H-imidazo[4,5-c]pyridin-5(4H)-yl)methanone] was tested. Which AC50 did it give?
Its AC50 is 1000 to 5000 nM.

How did the AC50 turn out when `O=C(c1ncco1)N1CCc2[nH]cnc2[C@H]1c1cc2c(C(F)(F)F)cccn2n1` [Example 2078, (S)-oxazol-2-yl(4-(4-(trifluoromethyl)pyrazolo[1,5-a]pyridin-2-yl)-1,4,6,7-tetrahydro-5H-imidazo[4,5-c]pyridin-5-yl)methanone] was run?
The AC50 was 500 to 1000 nM.

same assay, conditions: A375 cells expressing human R408W PAH; 24 hrs compound incubation; 13C-Tyrosine by LC-MS; average where tested multiple times; read-out: AC50

How did the AC50 turn out when `Cn1cc(-c2nnc(C(=O)N3CCc4[nH]cnc4[C@@H]3c3cc4cccc(C(F)(F)F)n4n3)o2)cn1` [Example 953, (R)-(5-(1-methyl-1H-pyrazol-4-yl)-1,3,4-oxadiazol-2-yl)(4-(7-(trifluoromethyl)pyrazolo[1,5-a]pyridin-2-yl)-6,7-dihydro-1H-imidazo[4,5-c]pyridin-5(4H)-yl)methanone] was run?
The AC50 was 1000 to 5000 nM.

Which AC50 does the source give for `CC(F)(F)c1ncc(C(=O)N2CCc3[nH]cnc3[C@H]2c2cc3ccccn3n2)s1` [Example 612, (S)-(2-(1,1-difluoroethyl)thiazol-5-yl)(4-(pyrazolo[1,5-a]pyridin-2-yl)-6,7-dihydro-1H-imidazo[4,5-c]pyridin-5(4H)-yl)methanone] here?
The AC50 was < 500 nM.

Which AC50 does the source give for `COc1cccn2nc([C@@H]3c4nc[nH]c4CCN3C(=O)c3cc(C)nn3C)cc12` [Example 918, (S)-(1,3-dimethyl-1H-pyrazol-5-yl)(4-(4-methoxypyrazolo[1,5-a]pyridin-2-yl)-6,7-dihydro-1H-imidazo[4,5-c]pyridin-5(4H)-yl)methanone] here?
The AC50 was < 500 nM.

Which AC50 does the source give for `O=C(c1cnn2ccccc12)N1CCc2[nH]cnc2[C@H]1c1cc2c(Cl)cccn2n1` [Example 1272, (S)-(4-(4-chloropyrazolo[1,5-a]pyridin-2-yl)-6,7-dihydro-1H-imidazo[4,5-c]pyridin-5(4H)-yl)(pyrazolo[1,5-a]pyridin-3-yl)methanone] here?
Its AC50 is < 500 nM.

Which AC50 does the source give for `COc1ccc(-c2nnc(C(=O)N3CCc4[nH]cnc4[C@H]3c3cc4cccc(Cl)n4n3)o2)nc1` [Example 1097, (S)-(4-(7-chloropyrazolo[1,5-a]pyridin-2-yl)-6,7-dihydro-1H-imidazo[4,5-c]pyridin-5(4H)-yl)(5-(5-methoxypyridin-2-yl)-1,3,4-oxadiazol-2-yl)methanone] here?
The AC50 was 500 to 1000 nM.

How did the AC50 turn out when `O=C(c1cncs1)N1CCc2[nH]cnc2[C@@H]1c1cc2ccccn2n1` [Example 603, (R)-(4-(pyrazolo[1,5-a]pyridin-2-yl)-6,7-dihydro-1H-imidazo[4,5-c]pyridin-5(4H)-yl)(thiazol-5-yl)methanone] was run?
Its AC50 is 1000 to 5000 nM.

For `Cc1cccn2nc([C@@H]3c4nc[nH]c4CCN3c3nnc(-c4ccccn4)o3)cc12` [Example 1637, (S)-2-(4-(4-methylpyrazolo[1,5-a]pyridin-2-yl)-6,7-dihydro-1H-imidazo[4,5-c]pyridin-5(4H)-yl)-5-(pyridin-2-yl)-1,3,4-oxadiazole], which AC50 is on record?
The AC50 was < 500 nM.

For `Cn1nccc1-c1nnc(C(=O)N2CCc3[nH]cnc3[C@H]2c2cc3c(F)cccn3n2)o1` [Example 1018, (S)-(4-(4-fluoropyrazolo[1,5-a]pyridin-2-yl)-6,7-dihydro-1H-imidazo[4,5-c]pyridin-5(4H)-yl)(5-(1methyl-1H-pyrazol-5-yl)-1,3,4-oxadiazol-2-yl)methanone], which AC50 is on record?
The AC50 was < 500 nM.

`Cn1cc(-c2nnc(C(=O)N3CCc4[nH]cnc4[C@H]3c3cc4c(Cl)cccn4n3)o2)cn1` [Example 688, (S)-(4-(4-chloropyrazolo[1,5-a]pyridin-2-yl)-6,7-dihydro-1H-imidazo[4,5-c]pyridin-5(4H)-yl)(5-(1-methyl-1H-pyrazol-4-yl)-1,3,4-oxadiazol-2-yl)methanone] was tested. Which AC50 did it give?
Its AC50 is < 500 nM.

How did the AC50 turn out when `O=C(c1nnc(-c2ncccc2F)o1)N1CCc2[nH]cnc2[C@@H]1c1cc2c(OC(F)F)cccn2n1` [Example 1656, (R)-(4-(4-(difluoromethoxy)pyrazolo[1,5-a]pyridin-2-yl)-6,7-dihydro-1H-imidazo[4,5-c]pyridin-5(4H)-yl)(5-(3-fluoropyridin-2-yl)-1,3,4-oxadiazol-2-yl)methanone] was run?
Its AC50 is > 5000 nM.

`Cc1ncoc1C(=O)N1CCc2[nH]cnc2[C@@H]1c1cc2ccccn2n1` [Example 607, (R)-(4-methyloxazol-5-yl)(4-(pyrazolo[1,5-a]pyridin-2-yl)-6,7-dihydro-1H-imidazo[4,5-c]pyridin-5(4H)-yl)methanone] was tested. Which AC50 did it give?
Its AC50 is > 5000 nM.

`O=C(c1nnc(-c2ccn(C(F)F)n2)o1)N1CCc2[nH]cnc2[C@@H]1c1cc2c(OC(F)F)cccn2n1` [Example 1663, (R)-(4-(4-(difluoromethoxy)pyrazolo[1,5-a]pyridin-2-yl)-6,7-dihydro-1H-imidazo[4,5-c]pyridin-5(4H)-yl)(5-(1-(difluoromethyl)-1H-pyrazol-3-yl)-1,3,4-oxadiazol-2-yl)methanone] was tested. Which AC50 did it give?
Its AC50 is > 5000 nM.

Which AC50 does the source give for `Cc1cc(C(=O)N2CCc3[nH]cnc3[C@H]2c2cc3c(C)cccn3n2)n(C)n1` [Example 900, (S)-(1,3-dimethyl-1H-pyrazol-5-yl)(4-(4-methylpyrazolo[1,5-a]pyridin-2-yl)-6,7-dihydro-1H-imidazo[4,5-c]pyridin-5(4H)-yl)methanone] here?
The AC50 was < 500 nM.

With `CC(C)c1nnc(C(=O)N2CCc3[nH]cnc3[C@H]2c2cc3ccccn3n2)o1` [Example 1448, (S)-(5-isopropyl-1,3,4-oxadiazol-2-yl)(4-(pyrazolo[1,5-a]pyridin-2-yl)-6,7-dihydro-1H-imidazo[4,5-c]pyridin-5(4H)-yl)methanone] as the compound, how does the AC50 read?
The AC50 was 500 to 1000 nM.

How did the AC50 turn out when `Cc1cccc2cc([C@H]3c4nc[nH]c4CCN3C(=O)c3nnc(-c4ccn(C)n4)o3)nn12` [Example 803, (R)-(5-(1-methyl-1H-pyrazol-3-yl)-1,3,4-oxadiazol-2-yl)(4-(7-methylpyrazolo[1,5-a]pyridin-2-yl)-6,7-dihydro-1H-imidazo[4,5-c]pyridin-5(4H)-yl)methanone] was run?
The AC50 was > 5000 nM.
